Source: the NIST ThermoML archive (doi:10.1016/j.fluid.2018.09.017)
Numbers after ± are expanded uncertainties.

Assay: molar heat capacity at constant pressure
Conditions: Liquid, Flow calorimetry

CCCCCCCCCCCC(=O)OCC [ethyl dodecanoate]
Conditions	molar heat capacity at constant pressure [J/K/mol]
313.26 K, 5030 kPa	472 ± 14
313.26 K, 9990 kPa	471 ± 14
313.27 K, 140 kPa	474 ± 14
313.27 K, 14970 kPa	470 ± 14
313.28 K, 25150 kPa	469 ± 14
313.29 K, 20040 kPa	470 ± 14
323.22 K, 160 kPa	480 ± 14
323.22 K, 20140 kPa	475 ± 14
323.22 K, 25150 kPa	474 ± 14
323.23 K, 4980 kPa	478 ± 14
323.23 K, 10110 kPa	477 ± 14
323.23 K, 14920 kPa	476 ± 14
333.2 K, 140 kPa	487 ± 15
333.2 K, 4920 kPa	485 ± 15
333.2 K, 10150 kPa	483 ± 15
333.2 K, 15060 kPa	482 ± 14
333.2 K, 19970 kPa	481 ± 14
333.21 K, 25020 kPa	480 ± 14
343.15 K, 140 kPa	493 ± 15
343.16 K, 5160 kPa	491 ± 15
343.16 K, 10270 kPa	489 ± 15
343.19 K, 15130 kPa	488 ± 15
343.19 K, 20220 kPa	487 ± 15
343.21 K, 25180 kPa	486 ± 15
353.14 K, 180 kPa	501 ± 15
353.14 K, 4970 kPa	498 ± 15
353.17 K, 9950 kPa	496 ± 15
353.17 K, 14920 kPa	494 ± 15
353.17 K, 20020 kPa	492 ± 15
353.18 K, 24950 kPa	491 ± 15
363.17 K, 110 kPa	508 ± 15
363.18 K, 5010 kPa	507 ± 15
363.29 K, 10190 kPa	505 ± 15
363.29 K, 15070 kPa	503 ± 15
363.29 K, 20150 kPa	501 ± 15
363.29 K, 25100 kPa	500 ± 15
373.19 K, 110 kPa	516 ± 16
373.2 K, 4900 kPa	514 ± 15
373.21 K, 10170 kPa	512 ± 15
373.21 K, 15020 kPa	511 ± 15
373.22 K, 19850 kPa	509 ± 15
373.25 K, 24930 kPa	508 ± 15
383.23 K, 100 kPa	523 ± 16
383.23 K, 5000 kPa	521 ± 16
383.23 K, 10040 kPa	520 ± 16
383.24 K, 15080 kPa	518 ± 16
383.25 K, 19940 kPa	517 ± 16
383.28 K, 25150 kPa	515 ± 15
393.2 K, 4910 kPa	530 ± 16
393.22 K, 110 kPa	532 ± 16
393.22 K, 10100 kPa	530 ± 16
393.23 K, 19780 kPa	528 ± 16
393.27 K, 15020 kPa	529 ± 16
393.27 K, 24830 kPa	527 ± 16

CCCCCCCCC(=O)OCC [ethyl nonanoate]
Conditions	molar heat capacity at constant pressure [J/K/mol]
303.21 K, 15150 kPa	369 ± 12
303.22 K, 9980 kPa	370 ± 12
303.24 K, 20090 kPa	369 ± 12
303.25 K, 5000 kPa	371 ± 12
303.27 K, 24930 kPa	368 ± 12
303.31 K, 110 kPa	371 ± 12
313.21 K, 19900 kPa	375 ± 12
313.22 K, 14910 kPa	376 ± 12
313.23 K, 170 kPa	377 ± 12
313.24 K, 9850 kPa	376 ± 12
313.24 K, 24930 kPa	374 ± 12
313.26 K, 5090 kPa	377 ± 12
323.19 K, 4970 kPa	385 ± 12
323.22 K, 110 kPa	386 ± 12
323.22 K, 24920 kPa	382 ± 12
323.23 K, 10020 kPa	384 ± 12
323.24 K, 20090 kPa	382 ± 12
323.26 K, 15190 kPa	383 ± 12
333.16 K, 4930 kPa	393 ± 13
333.18 K, 140 kPa	394 ± 13
333.18 K, 9950 kPa	393 ± 13
333.19 K, 20150 kPa	392 ± 13
333.21 K, 15110 kPa	393 ± 13
333.23 K, 25020 kPa	392 ± 13
343.19 K, 5070 kPa	400 ± 13
343.19 K, 9940 kPa	400 ± 13
343.19 K, 14950 kPa	400 ± 13
343.2 K, 110 kPa	401 ± 13
343.21 K, 19870 kPa	399 ± 13
343.22 K, 25210 kPa	399 ± 13
353.11 K, 4910 kPa	407 ± 13
353.14 K, 160 kPa	407 ± 13
353.14 K, 10160 kPa	406 ± 13
353.15 K, 14930 kPa	406 ± 13
353.2 K, 20210 kPa	405 ± 13
353.23 K, 25190 kPa	405 ± 13
363.12 K, 110 kPa	414 ± 13
363.14 K, 5090 kPa	413 ± 13
363.16 K, 15060 kPa	412 ± 13
363.17 K, 10020 kPa	413 ± 13
363.17 K, 20130 kPa	411 ± 13
363.19 K, 25160 kPa	410 ± 13
373.12 K, 100 kPa	420 ± 13
373.12 K, 4830 kPa	420 ± 13
373.13 K, 10020 kPa	419 ± 13
373.13 K, 15150 kPa	418 ± 13
373.14 K, 20170 kPa	418 ± 13
373.14 K, 24950 kPa	417 ± 13
383.18 K, 160 kPa	427 ± 14
383.2 K, 4950 kPa	426 ± 14
383.2 K, 10190 kPa	425 ± 14
383.2 K, 15000 kPa	425 ± 14
383.22 K, 20130 kPa	424 ± 14
383.22 K, 24950 kPa	424 ± 14
393.18 K, 110 kPa	434 ± 14
393.18 K, 5090 kPa	433 ± 14
393.18 K, 10020 kPa	433 ± 14
393.19 K, 15150 kPa	433 ± 14
393.2 K, 20190 kPa	432 ± 14
393.24 K, 24960 kPa	432 ± 14
